Calls of active or inactive are those of the source. The calls are words filed in the database; no cut-off is given here.
Experiments:
[1] = Octanol-water partition coefficient, logP of the compound at pH 7.4 incubated for 10 mins by shake-flask method; assay type: physicochemical
[2] = Drug uptake in […] Colon 26 cells measured per mg of protein after 3 hrs by auto-well gamma counter analysis; assay type: ADME, cell-based; conditions: mouse, colon 26, 3 h
[3] = Biodistribution in liver of BALB/c mouse xenografted with […] Colon 26 cells at 37 kBq, iv measured upto 96 hrs by auto-well gamma counter analysis; assay type: ADME, organism-based; conditions: in vivo
[4] = Biodistribution in spleen of BALB/c mouse xenografted with […] Colon 26 cells at 37 kBq, iv measured upto 96 hrs by auto-well gamma counter analysis; assay type: ADME, organism-based; conditions: in vivo
[5] = Biodistribution in lung of BALB/c mouse xenografted with […] Colon 26 cells at 37 kBq, iv measured upto 96 hrs by auto-well gamma counter analysis; assay type: ADME, organism-based; conditions: in vivo
[6] = Biodistribution in Tumor/blood of BALB/c mouse xenografted with […] Colon 26 cells at 37 kBq, iv by auto-well gamma counter analysis; assay type: ADME, organism-based; conditions: in vivo, 96 h, TDE = time-dependent effect
[7] = Biodistribution in Tumor/muscle of BALB/c mouse xenografted with […] Colon 26 cells at 37 kBq, iv measured at 48 hrs by auto-well gamma counter analysis; assay type: ADME, organism-based; conditions: in vivo
[8] = Drug uptake in Tumor of BALB/c mouse xenografted with […] Colon 26 cells at 37 kBq, iv measured at 48 hrs by auto-well gamma counter analysis; assay type: ADME, organism-based, Neoplasm; conditions: in vivo
[9] = Toxicity in BALB/c mouse xenografted with […] Colon 26 cells assessed as weight loss at 13.6 umol/kg, iv pretreated for 24 hrs followed by 30 mins irradiation with 50 W LED light and measured upto 7 days; assay type: organism-based; conditions: in vivo, 168 h, dose 13.6 µmol/kg, time < 7 day
Colon 26 [10] = assay: Phototoxicity against […] Colon 26 cells assessed as inhibition of cell growth preincubated for 24 hrs followed by compound washout with replacement of fresh medium and irradiation with 50 W LED light by MTT assay; assay type: functional, cell-based; conditions: Mus musculus, Colon 26, light or radiation study
Colon 26 [11] = assay: Dark toxicity against […] Colon 26 cells assessed as inhibition of cell growth incubated for 24 hrs by MTT assay; assay type: functional, cell-based; conditions: Mus musculus, Colon 26, 24 h
[12] = Induction of singlet oxygen production in DMSO assessed as singlet oxygen quantum yield by measuring the photooxidation of 9,10-dimethylanthracene at 5 uM irradiated with 50 W LED light; assay type: functional
Colon 26 [13] = assay: Photodynamic therapeutic activity against […] Colon 26 cells /c xenografted in BALB/c mouse assessed as tumor growth inhibition at 13.6 umol/kg, iv pretreated for 24 hrs followed by 30 mins irradiation with 50 W LED light and measured upto 7 days; assay type: functional, organism-based; conditions: dose 13.6 µmol/kg, time <= 7.0 day, tested as the 125I-labelled form

| Structure (SMILES) | logD at 10 min [1] | Drug uptake [2] [%] | Drug uptake [3] | Drug uptake [4] | Drug uptake [5] | Drug uptake [6] | Drug uptake [7] | Drug uptake [8] [% ID/g] | Activity [9] | IC50 (Colon 26 [10]) [µM] | IC50 (Colon 26 [11]) [µM] | Activity [12] | Activity (Colon 26 [13]) |
| --- | --- | --- | --- | --- | --- | --- | --- | --- | --- | --- | --- | --- | --- |
| Oc1ccc(-c2c3nc(c(-c4ccccc4)c4ccc([nH]4)c(-c4ccccc4)c4nc(c(-c5ccccc5)c5ccc2[nH]5)C=C4)C=C3)cc1[125I] | 2.96 | 54 | Active | Active | Active | Tde | Active | 18 | Non-Toxic |  |  |  |  |
| O=c1[nH]cc(F)c(=O)[nH]1 [FLUOROURACIL] |  |  |  |  |  |  |  |  |  | 4.1 | 3.87 |  |  |
| Oc1ccc(-c2c3nc(c(-c4ccccc4)c4ccc([nH]4)c(-c4ccccc4)c4nc(c(-c5ccccc5)c5ccc2[nH]5)C=C4)C=C3)cc1I |  |  |  |  |  |  |  |  |  | 8.77 | > 50 | 0.65 | Active |
| O=C(N[C@@H](Cc1ccc(O)c([125I])c1)C(=O)O)c1ccc(-c2c3nc(c(-c4ccccc4)c4ccc([nH]4)c(-c4ccccc4)c4nc(c(-c5ccccc5)c5ccc2[nH]5)C=C4)C=C3)cc1 | 2.55 | 52.9 | Active | Active | Active | Tde | Active | 8.7 | Non-Toxic |  |  |  |  |
| C1=Cc2nc1c(-c1ccccc1)c1ccc([nH]1)c(-c1ccccc1)c1nc(c(-c3ccccc3)c3ccc([nH]3)c2-c2ccccc2)C=C1 |  |  |  |  |  |  |  |  |  |  |  | 0.52 |  |
| O=C(N[C@@H](Cc1ccc(O)c(I)c1)C(=O)O)c1ccc(-c2c3nc(c(-c4ccccc4)c4ccc([nH]4)c(-c4ccccc4)c4nc(c(-c5ccccc5)c5ccc2[nH]5)C=C4)C=C3)cc1 |  |  |  |  |  |  |  |  |  | 5.28 | > 100 | 0.51 | Active |

From ChEMBL document CHEMBL5104227, “Synthesis and evaluation of radiolabeled porphyrin derivatives for cancer diagnoses and their nonradioactive counterparts for photodynamic therapy” (RSC Med Chem, 2022)
